Drawing on paper PMC11887212 (Journal of Hematology & Oncology, 2025), this text covers Kd for one compound.

This test has as its target sorcin (Homo sapiens, UniProt P30626). The test can be described thus: SPR. Type of test: binding.

Chain of sorcin (P30626 whole entry): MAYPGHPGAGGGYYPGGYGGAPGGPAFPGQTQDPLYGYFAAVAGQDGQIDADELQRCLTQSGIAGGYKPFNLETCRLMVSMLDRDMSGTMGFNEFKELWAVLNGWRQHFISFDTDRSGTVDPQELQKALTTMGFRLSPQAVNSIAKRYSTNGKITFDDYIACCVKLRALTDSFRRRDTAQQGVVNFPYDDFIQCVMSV

For the compound `CC1=C(O)C(=O)C=C2C1=CC=C1[C@@]2(C)CC[C@@]2(C)[C@@H]3C[C@](C)(C(=O)O)CC[C@]3(C)CC[C@]12C` [compound 1, celastrol], the equilibrium dissociation constant (Kd) amounted to 2130 nM.
